Measurements taken from paper PMC12094199 (Science Advances, 2025).

How the values were obtained:
[1] = Cell survival assay; type: cell-based; details: human, HEK-293 cells
[2] = tested on: U87MG cells; assay: Cell survival assay; type: cell-based; details: Homo sapiens, U-87 MG, 48 h, read-out: IC50 (cytotoxicity)

CC(=O)O[C@H]1C(=O)[C@@]2(C)[C@H]([C@H](OC(=O)c3ccccc3)[C@]3(O)C[C@H](OC(=O)[C@H](O)[C@@H](NC(=O)c4ccccc4)c4ccccc4)C(C)=C1C3(C)C)[C@]1(OC(C)=O)CO[C@@H]1C[C@@H]2O [PTX, paclitaxel] showed an IC50 at 48 h [1] of 0.0278 ± 0.0033 µM and an IC50 [2] of 0.218 ± 0.0542 µM.
